This is an account of results in patent US6107517A, “Thyroid hormone analogues and methods for their preparation” (The Regents of the University of California, priority 1999, dated 2000).

As a reminder, the Kd is the constant that tells how readily two partners part at equilibrium.

Molecules are shown by their SMILES.

In data set [1] the target is T1, hTRα (Homo sapiens, UniProt P10827).
T1 construct: made in house; host or cells: E. coli
T1 sequence (P10827 1-410 isoform P10827-2): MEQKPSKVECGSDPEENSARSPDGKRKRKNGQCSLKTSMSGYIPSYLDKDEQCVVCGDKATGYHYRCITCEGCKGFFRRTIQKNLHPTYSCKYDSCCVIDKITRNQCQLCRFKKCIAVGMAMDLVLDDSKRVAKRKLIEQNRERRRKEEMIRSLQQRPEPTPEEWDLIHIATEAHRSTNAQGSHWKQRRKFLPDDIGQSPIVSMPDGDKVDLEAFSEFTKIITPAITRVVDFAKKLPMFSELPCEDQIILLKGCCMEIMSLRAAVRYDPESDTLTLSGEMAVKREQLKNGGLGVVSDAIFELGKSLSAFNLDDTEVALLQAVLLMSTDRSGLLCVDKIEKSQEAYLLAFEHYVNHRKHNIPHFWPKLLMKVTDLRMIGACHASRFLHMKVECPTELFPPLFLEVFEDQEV
Kind of data set: Receptor binding assay: competition with [125I]T3 for binding to recombinant hTRα. The protocol: (§1) To test the ability of synthesized human thyroid receptor (hTR) ligands to bind to two subtypes of hTR, hTRα and hTRβ, the binding affinity of a TR ligand for a TR can be assayed using TRs expressed in E. coli and [^125 I ] […] The binding affinity of a ligand for its receptor is defined by a constant termed Kd and can be calculated using a curve fitting program.
(§2) The ability of [^125 I] […] In control experiments, either purified recombinant hTRα or hTRβ was incubated with [^125 I] […] To test the analogues, either purified recombinant hTRα or hTRβ was incubated with [^125 I]

Data set [2] concerns the target T1, hTRα. Kind of data set: Cellular transcription (luciferase) assay in HeLa cells overexpressing hTRα. It is filed as cell-based. As to conditions: for activation of transcription via hTRα (luciferase): 24 hours at 37° C., T3 10^-12 to 10^-7 M, I-3 10^-10 to 3×10^-5 M, I-1 10^-9 to 3×10^-5 M. The protocol: (§3) Cellular transactivation assays can be performed according to the procedure in Ribeiro R. C. et al. (1996) J. Biol. Chem. 271, 17147-17151. Briefly, HeLa cells are grown in 15 cm dishes in DME H-21, 4.5 g/L glucose with 10% newborn bovine serum, 2 mM glutamine, 50 units/ml penicillin, and 50 μg/ml streptomycin.
(§4) For transfections, cells are trypsinized, resuspended in buffer (PBS, 0.1% glucose), and mixed with a reporter gene construct and with or without the appropriate thyroid receptor (TR) expression vectors (CMV TR β1,CMV TR α1). One such reporter gene construct consists of a synthetic TR response element (DR-4) containing two copies of a direct repeat spaced by four nucleotides (AGGTCA-caggAGGTCA) cloned into the HindIII site of the pUC19 polylinker immediately upstream of a minimal (-32/+45) thymidine kinase promoter linked to luciferase coding sequences. Another reporter gene construct that can be used consists of the β-galactosidase coding sequence fused downstream of an actin promoter.
(§5) Cells in 0.5 ml of buffer (8+/-2 million cells) are electroporated using a Bio-Rad gene pulser at 0.35 kvolts and 960 microfarads. […] After incubation at 37° C. for 24 hours, incubation media is discarded and the cells are detached with 1 ml of calcium/magnesium-free PBS, 1mM EDTA, prewarmed at 37° C., and transferred to 1.5 ml Eppendorf tubes. Cells are pelleted by centrifugation in a microfuge for 15 seconds at room temperature. The supernatants are aspirated and the pellets are lysed by addition of 120 μl of Tris-Cl 0.25 M pH 7.6, 0.1% Triton. After resuspension by vortexing for 5-10 sec, the lysates are pelleted by centrifugation in a microfuge for 5 min at room temperature. One hundred μl of each Eppendorf tube lysate is added to 300 μl of 25 mM glycylglycine pH 7.8, 15 mM MgSO4, 4 mM EGTA, 15 mM potassium phosphate pH 7.8, 1 mM DTT, 2 mM ATP, and 0.2 mM Luciferine. The light output is measured for 10 sec at room temperature with a luminometer (Analytical Luminescence Laboratory, MONOLIGHT^R 1500). […]

Data set [3] deals with T2, hTRβ (Homo sapiens, UniProt P10828).
T2 construct: expressed in transfected cells; host or cells: HeLa cells
T2 sequence (P10828 1-461): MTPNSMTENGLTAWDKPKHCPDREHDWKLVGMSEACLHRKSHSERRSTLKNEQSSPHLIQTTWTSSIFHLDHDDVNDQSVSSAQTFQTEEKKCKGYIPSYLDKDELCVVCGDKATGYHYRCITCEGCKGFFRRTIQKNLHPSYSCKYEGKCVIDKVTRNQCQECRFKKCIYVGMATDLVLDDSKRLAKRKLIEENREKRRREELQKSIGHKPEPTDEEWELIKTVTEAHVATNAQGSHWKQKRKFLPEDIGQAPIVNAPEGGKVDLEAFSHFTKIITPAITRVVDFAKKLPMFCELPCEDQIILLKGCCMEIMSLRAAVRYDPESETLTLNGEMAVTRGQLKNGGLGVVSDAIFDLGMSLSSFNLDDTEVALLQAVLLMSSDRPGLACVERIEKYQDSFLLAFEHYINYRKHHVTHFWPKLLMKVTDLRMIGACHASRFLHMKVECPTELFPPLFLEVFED
As to the kind of experiment: Cellular transcription (luciferase) assay in HeLa cells overexpressing hTRβ. Type of data set: cell-based. As to conditions: for activation of transcription via hTRβ (luciferase): 24 hours at 37° C., T3 10^-12 to 10^-7 M, I-3 10^-10 to 3×10^-5 M, I-1 10^-9 to 3×10^-5 M. Here is the method:
as §3, §4, §5

The test system of another data set is HeLa cells. As to the kind of experiment: Toxicity in HeLa cells (change in cell morphology, or lifting off of cells from a growth surface). It is filed as cell-based.
Data set [4] relates to luciferase reporter gene (HeLa cells). As to the kind of experiment: Luciferase activity in HeLa cells containing reporter constructs but no overexpressed hTRs. As to conditions: highest concentration [10^-5]. Type of data set: cell-based. The protocol: as §3, §4
Cells in 0.5 ml of buffer (8+/-2 million cells) are electroporated using a Bio-Rad gene pulser at 0.35 kvolts and 960 microfarads. […] The light output is measured for 10 sec at room temperature with a luminometer (Analytical Luminescence Laboratory, MONOLIGHT^R 1500).

Data set [5] concerns the target T2, hTRβ. As to the kind of experiment: Receptor binding assay: competition with [125I]T3 for binding to recombinant hTRβ. The protocol: as §1, §2
Data set [6] has as its system β-galactosidase reporter gene construct (HeLa cells). As to the kind of experiment: β-galactosidase reporter control expression in HeLa cells. It is filed as cell-based. The settings on record: 1nM T3 or Compound (I-1) 10^-6 M to 10^-5 M.
Excerpt: as §4
Cells in 0.5 ml of buffer (8+/-2 million cells) are electroporated using a Bio-Rad gene pulser at 0.35 kvolts and 960 microfarads. […] After incubation at 37° C. for 24 hours, incubation media is discarded and the cells are detached with 1 ml of calcium/magnesium-free PBS, 1mM EDTA, prewarmed at 37° C., and transferred to 1.5 ml Eppendorf tubes. Cells are pelleted by centrifugation in a microfuge for 15 seconds at room temperature. The supernatants are aspirated and the pellets are lysed by addition of 120 μl of Tris-Cl 0.25 M pH 7.6, 0.1% Triton. […] The light output is measured for 10 sec at room temperature with a luminometer (Analytical Luminescence Laboratory, MONOLIGHT^R 1500).

In another data set the test system is TRβ. As to conditions: literature / earlier patent; cited from earlier work.

On to `CCCCN(C)C(=O)CCCCCCCCCCC(c1ccc(O)c(C(C)C)c1)c1c(C)cc(OCC(=O)O)cc1C` (centres unmarked) [Compound I-1], for which the Kd at hTRα [1] is roughly 0.077 µM. At hTRα [2], the “competition with T3 / antagonism, hTRα” value is “still able to compete with T3” and the “activation of transcription via hTRα (luciferase)” value is recorded as “did not appear to activate hTR-mediated transcription”. Further, at hTRβ [3], the “competition with T3 / antagonism, hTRβ” value is given as “still able to compete with T3” and the “activation of transcription via hTRβ (luciferase)” value is listed as “did not appear to activate hTR-mediated transcription”. Besides, the “concentration at which toxicity was observed” value in the data set on HeLa cells worked out at 10 µM. The “luciferase activity without cotransfected TR-expression construct” value in data set [4] is “occurs even when a TR-expression construct is not cotransfected into HeLa cells”. The Kd at hTRβ [5] is roughly 0.18 µM. For the same molecule, in data set [6], the “expression of β-galactosidase” value is given as “not affected”.
For `CCCCN(C)C(=O)CCCCCC/C=C\CCC(c1ccc(O)c(C(C)C)c1)c1c(C)cc(OCC(=O)O)cc1C` (centres unmarked) [Compound I-2], the Kd on hTRα [1] was roughly 0.237 µM; on hTRβ [5] it was roughly 0.721 µM.
In the case of `C=CCC(c1ccc(O)c(C(C)C)c1)c1c(C)cc(OCC(=O)O)cc1C` (centres unmarked) [Compound I-3], the Kd at hTRα [1] is roughly 0.138 µM; on hTRβ [5] it was roughly 0.036 µM. In addition, at hTRα [2], the “activation of transcription via hTRα (luciferase)” value was “able to stimulate transcription and translation of the luciferase gene through both subtypes of hTR, though to a lesser degree than. T3”. Besides, the “activation of transcription via hTRβ (luciferase)” value on hTRβ [3] is “able to stimulate transcription and translation of the luciferase gene through both subtypes of hTR, though to a lesser degree than. T3”.
Turning to `N[C@@H](Cc1cc(I)c(Oc2ccc(O)c(I)c2)c(I)c1)C(=O)O` [Compound T3, 3,5,3'-triiodo-L-thyronine, reference compound], the “expression of β-galactosidase” value in data set [6] is reported as “not affected”.
As to `Cc1cc(OCC(=O)O)cc(C)c1Cc1ccc(O)c(C(C)C)c1` [GC-1], the “affinity and TR subtype selectivity (background)” value in the data set with TRβ was “high affinity TRP-selective agonist ligand”.
